Measurements as given in the NIST ThermoML archive (doi:10.1016/j.jct.2014.01.006).
Where “and” joins values, the source holds several entries; their conditions need not be identical. Equal entries are not always repeated.

Experiment: molar heat capacity at saturation pressure

c1ccc(-c2cccc3ccccc23)cc1 [1-phenylnaphthalene]
Settings | molar heat capacity
57.98 K, Crystal, Vacuum adiabatic calorimetry | 61.8 J/K/mol
60 K, Crystal, Vacuum adiabatic calorimetry | 63.39 J/K/mol
61.92 K, Crystal, Vacuum adiabatic calorimetry | 65.08 J/K/mol
63.69 K, Crystal, Vacuum adiabatic calorimetry | 66.18 J/K/mol
66.86 K, Crystal, Vacuum adiabatic calorimetry | 68.59 J/K/mol
70 K, Crystal, Vacuum adiabatic calorimetry | 70.93 J/K/mol
70.04 K, Crystal, Vacuum adiabatic calorimetry | 71 J/K/mol
71.83 K, Crystal, Vacuum adiabatic calorimetry | 72.22 J/K/mol
76.82 K, Crystal, Vacuum adiabatic calorimetry | 75.66 J/K/mol
77.08 K, Crystal, Vacuum adiabatic calorimetry | 75.91 J/K/mol
80 K, Crystal, Vacuum adiabatic calorimetry | 77.87 J/K/mol
81.77 K, Crystal, Vacuum adiabatic calorimetry | 79.16 J/K/mol
84.85 K, Crystal, Vacuum adiabatic calorimetry | 81.07 J/K/mol
86.7 K, Crystal, Vacuum adiabatic calorimetry | 82.3 J/K/mol
90 K, Crystal, Vacuum adiabatic calorimetry | 84.45 J/K/mol
92.7 K, Glass, Vacuum adiabatic calorimetry | 86.97 J/K/mol
93.5 K, Crystal, Vacuum adiabatic calorimetry | 86.69 J/K/mol
100 K, Crystal, Vacuum adiabatic calorimetry | 90.82 J/K/mol
102.16 K, Glass, Vacuum adiabatic calorimetry | 93.03 J/K/mol
102.86 K, Crystal, Vacuum adiabatic calorimetry | 92.63 J/K/mol
111.98 K, Glass, Vacuum adiabatic calorimetry | 99.33 J/K/mol
112.57 K, Crystal, Vacuum adiabatic calorimetry | 98.86 J/K/mol
120 K, Crystal, Vacuum adiabatic calorimetry | 103.63 J/K/mol
122.36 K, Crystal, Vacuum adiabatic calorimetry | 105.15 J/K/mol
122.48 K, Glass, Vacuum adiabatic calorimetry | 106.16 J/K/mol
132.22 K, Crystal, Vacuum adiabatic calorimetry | 111.61 J/K/mol
133.24 K, Glass, Vacuum adiabatic calorimetry | 113.28 J/K/mol
140 K, Crystal, Vacuum adiabatic calorimetry | 116.81 J/K/mol
142.62 K, Crystal, Vacuum adiabatic calorimetry | 118.58 J/K/mol
144.86 K, Glass, Vacuum adiabatic calorimetry | 121.24 J/K/mol
153.97 K, Crystal, Vacuum adiabatic calorimetry | 126.35 J/K/mol
158.22 K, Glass, Vacuum adiabatic calorimetry | 130.67 J/K/mol
160 K, Crystal, Vacuum adiabatic calorimetry | 130.74 J/K/mol
165.78 K, Crystal, Vacuum adiabatic calorimetry | 135.02 J/K/mol
172.31 K, Glass, Vacuum adiabatic calorimetry | 140.99 J/K/mol
177.53 K, Crystal, Vacuum adiabatic calorimetry | 143.52 J/K/mol
180 K, Crystal, Vacuum adiabatic calorimetry | 145.34 J/K/mol
183.8 K, Crystal, Vacuum adiabatic calorimetry | 148.26 J/K/mol
184.4 K, Glass, Vacuum adiabatic calorimetry | 150.13 J/K/mol
189.34 K, Crystal, Vacuum adiabatic calorimetry | 152.49 J/K/mol
193.62 K, Glass, Vacuum adiabatic calorimetry | 157.14 J/K/mol
195.08 K, Crystal, Vacuum adiabatic calorimetry | 157.04 J/K/mol
198.88 K, Glass, Vacuum adiabatic calorimetry | 161.79 J/K/mol
200 K, Crystal, Vacuum adiabatic calorimetry | 160.73 J/K/mol
201.24 K, Crystal, Vacuum adiabatic calorimetry | 161.76 J/K/mol
201.34 K, Glass, Vacuum adiabatic calorimetry | 162.43 J/K/mol
206.16 K, Crystal, Vacuum adiabatic calorimetry | 165.72 J/K/mol
212.82 K, Glass, Vacuum adiabatic calorimetry | 180.93 J/K/mol
217.01 K, Crystal, Vacuum adiabatic calorimetry | 174.74 J/K/mol
220 K, Crystal, Vacuum adiabatic calorimetry | 177.08 J/K/mol
224.64 K, Liquid, Vacuum adiabatic calorimetry | 274.63 J/K/mol
227.57 K, Crystal, Vacuum adiabatic calorimetry | 183.38 J/K/mol
230.27 K, Liquid, Vacuum adiabatic calorimetry | 276.92 J/K/mol
233.28 K, Liquid, Vacuum adiabatic calorimetry | 278.09 J/K/mol
238.35 K, Crystal, Vacuum adiabatic calorimetry | 192.45 J/K/mol
239.4 K, Liquid, Vacuum adiabatic calorimetry | 280.79 J/K/mol
240 K, Crystal, Vacuum adiabatic calorimetry | 193.69 J/K/mol
242.59 K, Liquid, Vacuum adiabatic calorimetry | 282.18 J/K/mol
249.84 K, Crystal, Vacuum adiabatic calorimetry | 202.22 J/K/mol
252.38 K, Liquid, Vacuum adiabatic calorimetry | 286.68 J/K/mol
252.84 K, Liquid, Vacuum adiabatic calorimetry | 287 J/K/mol
260 K, Crystal, Vacuum adiabatic calorimetry | 210.67 J/K/mol
261.66 K, Crystal, Vacuum adiabatic calorimetry | 212.63 J/K/mol
273.41 K, Crystal, Vacuum adiabatic calorimetry | 223.08 J/K/mol
280 K, Crystal, Vacuum adiabatic calorimetry | 228.03 J/K/mol
284.54 K, Liquid, Vacuum adiabatic calorimetry | 303.16 J/K/mol
285.16 K, Crystal, Vacuum adiabatic calorimetry | 237.05 J/K/mol
293.3 K, Liquid, Vacuum adiabatic calorimetry | 308.04 J/K/mol
297.47 K, Crystal, Vacuum adiabatic calorimetry | 243.76 J/K/mol
297.47 K, Liquid, Vacuum adiabatic calorimetry | 310.36 J/K/mol
298.15 K, Liquid, Vacuum adiabatic calorimetry | 310.74 J/K/mol
300 K, Liquid, Vacuum adiabatic calorimetry | 311.8 J/K/mol
304.21 K, Liquid, Vacuum adiabatic calorimetry | 314.19 J/K/mol
305.11 K, Liquid, Vacuum adiabatic calorimetry | 314.67 J/K/mol
305.83 K, Liquid, Vacuum adiabatic calorimetry | 315.13 J/K/mol
306.22 K, Liquid, Vacuum adiabatic calorimetry | 315.36 J/K/mol
314.2 K, Liquid, Vacuum adiabatic calorimetry | 320 J/K/mol
320 K, Liquid, Vacuum adiabatic calorimetry | 323.37 J/K/mol
321.38 K, Liquid, Vacuum adiabatic calorimetry | 324.18 J/K/mol
337.19 K, Liquid, Vacuum adiabatic calorimetry | 333.49 J/K/mol
340 K, Liquid, Vacuum adiabatic calorimetry | 335.17 J/K/mol
352.74 K, Liquid, Vacuum adiabatic calorimetry | 342.77 J/K/mol
360 K, Liquid, Vacuum adiabatic calorimetry | 347.09 J/K/mol
368.54 K, Liquid, Vacuum adiabatic calorimetry | 352.16 J/K/mol
380 K, Liquid, Vacuum adiabatic calorimetry | 359 J/K/mol
384.76 K, Liquid, Vacuum adiabatic calorimetry | 361.84 J/K/mol
400 K, Liquid, Vacuum adiabatic calorimetry | 370.85 J/K/mol
400.59 K, Liquid, Vacuum adiabatic calorimetry | 371.18 J/K/mol
410 K, Liquid, Small sample (50 mg) DSC | 374.57 J/K/mol and 371.91 J/K/mol and 371.07 J/K/mol
415.69 K, Liquid, Vacuum adiabatic calorimetry | 380.05 J/K/mol
420 K, Liquid, Vacuum adiabatic calorimetry | 382.51 J/K/mol
428.68 K, Liquid, Vacuum adiabatic calorimetry | 387.41 J/K/mol
430 K, Liquid, Small sample (50 mg) DSC | 384.13 J/K/mol and 385.46 J/K/mol and 382.55 J/K/mol
439.15 K, Liquid, Vacuum adiabatic calorimetry | 393.4 J/K/mol
440 K, Liquid, Vacuum adiabatic calorimetry | 393.64 J/K/mol
450 K, Liquid, Small sample (50 mg) DSC | 395.1 J/K/mol and 393.86 J/K/mol and 402.09 J/K/mol
460 K, Liquid, Vacuum adiabatic calorimetry | 401.95 J/K/mol
470 K, Liquid, Small sample (50 mg) DSC | 403.25 J/K/mol and 404.83 J/K/mol and 407.16 J/K/mol
480 K, Liquid, Vacuum adiabatic calorimetry | 412.21 J/K/mol
490 K, Liquid, Small sample (50 mg) DSC | 411.48 J/K/mol and 416.14 J/K/mol and 419.05 J/K/mol
500 K, Liquid, Vacuum adiabatic calorimetry | 422.42 J/K/mol
510 K, Liquid, Small sample (50 mg) DSC | 426.2 J/K/mol and 428.36 J/K/mol and 429.11 J/K/mol
520 K, Liquid, Vacuum adiabatic calorimetry | 432.63 J/K/mol
530 K, Liquid, Small sample (50 mg) DSC | 435.1 J/K/mol and 439.09 J/K/mol and 438.67 J/K/mol
540 K, Liquid, Vacuum adiabatic calorimetry | 442.84 J/K/mol
550 K, Liquid, Small sample (50 mg) DSC | 444.66 J/K/mol and 449.81 J/K/mol and 447.07 J/K/mol
560 K, Liquid, Vacuum adiabatic calorimetry | 453.01 J/K/mol
570 K, Liquid, Small sample (50 mg) DSC | 452.81 J/K/mol and 460.62 J/K/mol and 460.45 J/K/mol
580 K, Liquid, Vacuum adiabatic calorimetry | 463.22 J/K/mol
590 K, Liquid, Small sample (50 mg) DSC | 466.28 J/K/mol and 469.1 J/K/mol and 471.1 J/K/mol
600 K, Liquid, Vacuum adiabatic calorimetry | 473.43 J/K/mol
610 K, Liquid, Small sample (50 mg) DSC | 480.83 J/K/mol and 476.5 J/K/mol and 479.25 J/K/mol
620 K, Liquid, Vacuum adiabatic calorimetry | 483.64 J/K/mol
640 K, Liquid, Vacuum adiabatic calorimetry | 493.83 J/K/mol
650 K, Liquid, Vacuum adiabatic calorimetry | 498.91 J/K/mol
